Assay results: US20240239811A1, “5-(5-(PIPERIDIN-4-YL)THIENO[3,2-C]PYRAZOL-2-YL]INDAZOLE DERIVATIVES AND RELATED COMPOUNDS AS MODULATORS FOR SPLICING NUCLEIC ACIDS AND FOR THE T” (REMIX THERAPEUTICS INC., priority 2020, published 2024)

Experiments:
Format in all cases: cell-based
HTT mRNA = assay: Splicing assay (RT-qPCR) monitoring HTT splice variants, canonical (CJ) and alternative (AJ) junction; conditions: 50% response, A673 or K562 cell line, 24 hours; for IC50: decrease in CJ mRNA; for AC50: increase in AJ mRNA
Summary of the method: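 A673 or K562 cells were treated 24 h with an 11-point 3-fold dilution series (top 10 uM, ≤0.25% DMSO) at 37 °C. HTT canonical- and alternative-junction mRNAs were quantified in lysates by one-step RT-qPCR. Values were normalized to PPIA (A673) or GAPDH/GUSB (K562).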

HTT CJ mRNA = assay: Gene panel canonical junction qPCR assay, HTT; conditions: Table 6, decrease in CJ mRNA, read-out: HTT IC50 (decrease in CJ mRNA levels)
Summary of the method: (§1)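 A673 or K562 cells treated 24 h at 37° C with 11-point 3-fold dilutions, top 10 uM, DMSO ≤0.25%. CJ mRNA quantified by RT-qPCR with exon-junction-spanning probeset, ΔΔCt vs housekeeping gene (GAPDH, GUSB or PPIA) and DMSO control. IC50 from 4-parameter fit of percentage CJ decrease.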

SMN2 CJ mRNA = assay: Gene panel canonical junction qPCR assay, SMN2; conditions: Table 6, decrease in CJ mRNA, read-out: SMN2 IC50 (decrease in CJ mRNA levels)
Summary of the method: as §1

Target C CJ mRNA = assay: Gene panel canonical junction qPCR assay, Target C; conditions: Table 6, decrease in CJ mRNA, read-out: Target C IC50 (decrease in CJ mRNA levels)
Summary of the method: as §1

IC50 (HTT mRNA) [nM]	IC50 (HTT CJ mRNA) [nM]	IC50 (SMN2 CJ mRNA) [nM]	IC50 (Target C CJ mRNA) [nM]	SMILES	AC50 (HTT mRNA) [nM]
100 to 1000	100 to 1000	< 100	100 to 1000	Cn1cc2cc(-c3cc4cn(C5CCNCC5)nc4s3)c(O)c(F)c2n1 [Compound 215]	100 to 1000
< 100	< 100	< 100	100 to 1000	Cc1cn2cc(-c3cc4cn(C5CCNCC5)nc4s3)cc(C)c2n1 [Compound 216]	< 100
< 100	< 100	< 100	100 to 1000	COc1c(-c2cc3cn(C4CCNCC4)nc3s2)cc2cn(C)nc2c1F [Compound 218]	100 to 1000
> 10000	> 10000	1000 to 10000	> 10000	COc1c(-c2cc3cn(C4CCNCC4)nc3s2)nn2cc(C)nc(C)c12 [Compound 219, 4-(5-{3-methoxy-4,6-dimethylpyrazolo[1,5-a]pyrazin-2-yl}thieno[2,3-c]pyrazol-2-yl) piperidine]	> 10000
1000 to 10000	1000 to 10000	1000 to 10000	1000 to 10000	Cn1cc2cc(-n3cc4cc(C5CCNCC5)sc4n3)c(O)cc2n1 [Compound 220]	1000 to 10000
> 10000	> 10000	> 10000	> 10000	Cc1c(O)c(-c2cc3cn(C4CCNCC4)nc3s2)cc2cn(C)nc12 [Compound 221]	> 10000
1000 to 10000	1000 to 10000	< 100	1000 to 10000	Cc1cn2nc(-c3cc4cn(C5CCNCC5)nc4s3)cc2c(C)n1 [Compound 222]	1000 to 10000
1000 to 10000	1000 to 10000	100 to 1000	1000 to 10000	Cc1cn2cc(-c3cc4cn(C5CCNCC5)nc4s3)ncc2n1 [Compound 223]	1000 to 10000
> 10000	> 10000	> 10000	> 10000	COc1c(-c2cc3cn(C4CCNCC4)nc3s2)cc(F)c2nn(C)cc12 [Compound 224]	> 10000
< 100	< 100	< 100	100 to 1000	Cc1cc(-c2cc3cn(C4CCNCC4)nc3s2)cc2cn(C)nc12 [Compound 225]	< 100
< 100	< 100	< 100	100 to 1000	Cc1cn2cc(-c3cc4cn(C5CCNCC5)nc4s3)cc(Cl)c2n1 [Compound 226]	< 100
1000 to 10000	1000 to 10000	100 to 1000	> 10000	Cn1cc2c(O)c(-c3nc4sc(C5CCNCC5)cc4s3)ccc2n1 [Compound 231, 2-methyl-5-[5-(piperidin-4-yl)thieno[2,3-d][1,3]thiazol-2-yl]indazol-4-ol]	1000 to 10000
1000 to 10000	1000 to 10000	< 100	1000 to 10000	Cn1cc2cc(-c3nc4sc(N5CCC6(CCN6)C5)cc4s3)cc(F)c2n1 (stereo not shown) [Compound 233, 5-(5-{1,6-diazaspiro[3.4]octan-6-yl}thieno[2,3-d][1,3]thiazol-2-yl)-7-fluoro-2-methylindazole]	1000 to 10000
1000 to 10000	1000 to 10000	100 to 1000	1000 to 10000	Cc1cn2nc(-c3nc4sc(C5CNC5)cc4s3)cc(C)c2n1 [Compound 235, 3-(2-{2,8-dimethylimidazo[1,2-b]pyridazin-6-yl}thieno[2,3-d] [1,3]thiazol-5-yl) azetidine]	1000 to 10000
100 to 1000	100 to 1000	100 to 1000	1000 to 10000	Cn1cc2cc(-c3nc4sc(C5(O)CCNCC5)cc4s3)cc(F)c2n1 [Compound 236, 4-[2-(7-fluoro-2-methylindazol-5-yl)thieno[2,3-d] [1,3]thiazol-5-yl] piperidin-4-ol]	1000 to 10000
> 10000	> 10000	> 10000	> 10000	COc1c(-c2nc3sc(C4CCNCC4)cc3s2)cc(F)c2nn(C)cc12 [Compound 237, 7-fluoro-4-methoxy-2-methyl-5-[5-(piperidin-4-yl)thieno[2,3-d][1,3]thiazol-2-yl]indazole]	> 10000
< 100	< 100	< 100	100 to 1000	Cc1cc(-c2nc3sc(C4CCNCC4)cc3s2)cc2cn(C)nc12 [Compound 238, 2,7-dimethyl-5-[5-(piperidin-4-yl)thieno[2,3-d][1,3]thiazol-2-yl]indazole]	< 100
